The values below are quoted from earlier work in article PMC5742115, “Pharmacophore Modeling and in Silico/in Vitro Screening for Human Cytochrome P450 11B1 and Cytochrome P450 11B2 Inhibitors” (Frontiers in Chemistry, 2017).

Read-outs that look alike come from different tables or passages of the source.

Data set [1] has as its system CYP11B1. The following applies: reported activity, supplementary Table 1, read-out: CYP11B1 IC50, cited from earlier work.
Data set [2] has as its system CYP11B2. Particulars: reported activity, supplementary Table 1, read-out: CYP11B2 IC50, cited from earlier work.

`O=C1CCc2cc(C(c3ccc(F)cc3)n3ccnc3)cc3c2N1CC3` (centres unmarked) [CHEMBL2163644]: the IC50 (usually the concentration that inhibits the measured activity by half) in data set [1] (ref Yin et al., 2012) was 27 nM; in data set [2] (ref Yin et al., 2012) it was 29 nM.
Consider `COc1cccc(C(c2cc3c4c(c2)CCN4C(=O)CC3)n2ccnc2)c1` (centres unmarked) [CHEMBL2163645], for which the IC50 in data set [1] (ref Yin et al., 2012) was 110 nM; in data set [2] (ref Yin et al., 2012), 88 nM.
On to `O=C1CCc2cc(C(c3ccccc3)n3ccnc3)cc3c2N1CC3` (centres unmarked) [CHEMBL2163649], for which the IC50 is 50 nM in data set [1] (ref Yin et al., 2012) and 33 nM in data set [2] (ref Yin et al., 2012).
As to `O=C1CCc2cc(C(c3ccco3)n3ccnc3)cc3c2N1CC3` (centres unmarked) [CHEMBL2163650], the IC50 in data set [1] (ref Yin et al., 2012) was 20 nM; in data set [2] (ref Yin et al., 2012), 47 nM.
As to `O=C1CCc2cc(C(c3cccs3)n3ccnc3)cc3c2N1CC3` (centres unmarked) [CHEMBL2163651], the IC50 in data set [1] (ref Yin et al., 2012) was 13 nM; in data set [2] (ref Yin et al., 2012), 18 nM.
`COc1cc2c(cc1-c1cccnc1)CCC(=O)N2C` [CHEMBL2165315]: the 50% inhibitory concentration (IC50) in data set [1] (ref Hu et al., 2012) is 1100 nM; in data set [2] (ref Hu et al., 2012) it was 19 nM.
Take `CCOc1cc2c(cc1-c1cccnc1)CCC(=O)N2C` [CHEMBL2165317]: the half-maximal inhibitory concentration (IC50) in data set [1] (ref Hu et al., 2012) is 790 nM; in data set [2] (ref Hu et al., 2012) it was 19 nM.
Take `O=C1CCc2cc(-c3cccnc3)c(OCc3ccccc3)cc2N1` [CHEMBL2165320]: the IC50 in data set [1] (ref Hu et al., 2012) is 44 nM; in data set [2] (ref Hu et al., 2012), 22 nM.
Consider `O=C1CCc2cc(-c3cccnc3)cc(Br)c2N1` [CHEMBL2165322], for which the IC50 in data set [1] (ref Hu et al., 2012) was 1420 nM; in data set [2] (ref Hu et al., 2012) it was 12 nM.
With `C=C(c1ccncc1)c1cc2c3c(c1)CCN3C(=O)CC2` [CHEMBL2312949], the IC50 was 1230 nM in data set [1] (ref Yin et al., 2013) and 96 nM in data set [2] (ref Yin et al., 2013).
For `CC(c1ccncc1)c1cc2c3c(c1)CCN3C(=O)CC2` (centres unmarked) [CHEMBL2312950], the concentration for half-maximal inhibition (IC50) in data set [1] (ref Yin et al., 2013) was 140 nM; in data set [2] (ref Yin et al., 2013) it was 74 nM.
For the compound `O=C1CCc2cc(C(O)(c3ccccc3)c3ccncc3)cc3c2N1CC3` (centres unmarked) [CHEMBL2312953], the concentration for half-maximal inhibition (IC50) in data set [1] (ref Yin et al., 2013) was 745 nM; in data set [2] (ref Yin et al., 2013), 85 nM.
For the compound `COc1ccc(C(c2ccncc2)c2cc3c4c(c2)CCN4C(=O)CC3)cc1` (centres unmarked) [CHEMBL2312957], the IC50 in data set [1] (ref Yin et al., 2013) was 1690 nM; in data set [2] (ref Yin et al., 2013), 46 nM.
`O=C1CCc2cc(C(c3ccncc3)c3cccc(F)c3)cc3c2N1CC3` (centres unmarked) [CHEMBL2312958]: the IC50 in data set [1] (ref Yin et al., 2013) was 532 nM; in data set [2] (ref Yin et al., 2013) it was 88 nM.
As to `O=C1CCc2cc(C(c3ccncc3)c3ccc(F)cc3)cc3c2N1CC3` (centres unmarked) [CHEMBL2312959], the IC50 in data set [1] (ref Yin et al., 2013) is 88 nM; in data set [2] (ref Yin et al., 2013), 56 nM.
With `O=C1CCc2cc(C(c3ccncc3)c3cccc(Cl)c3)cc3c2N1CC3` (centres unmarked) [CHEMBL2312960], the IC50 was 646 nM in data set [1] (ref Yin et al., 2013) and 51 nM in data set [2] (ref Yin et al., 2013).
For `O=C1CCc2cc(C(c3ccncc3)c3ccc(Cl)cc3)cc3c2N1CC3` (centres unmarked) [CHEMBL2312961], the IC50 is 92 nM in data set [1] (ref Yin et al., 2013) and 32 nM in data set [2] (ref Yin et al., 2013).
As for `Cc1cccc(C(c2ccncc2)c2cc3c4c(c2)CCN4C(=O)CC3)c1` (centres unmarked) [CHEMBL2312962], the concentration for half-maximal inhibition (IC50) was 1340 nM in data set [1] (ref Yin et al., 2013) and 41 nM in data set [2] (ref Yin et al., 2013).
Consider `O=C1CCc2cc(Cc3cccnc3)cc3c2N1CC3` [CHEMBL2312965], for which the IC50 in data set [1] (ref Yin et al., 2013) was 16 nM; in data set [2] (ref Yin et al., 2013) it was 74 nM.
Regarding `C=C(c1cccnc1)c1cc2c3c(c1)CCN3C(=O)CC2` [CHEMBL2312966], the IC50 in data set [1] (ref Yin et al., 2013) is 41 nM; in data set [2] (ref Yin et al., 2013), 468 nM.
In the case of `CC(c1cccnc1)c1cc2c3c(c1)CCN3C(=O)CC2` (centres unmarked) [CHEMBL2312967], the IC50 was 4 nM in data set [1] (ref Yin et al., 2013) and 37 nM in data set [2] (ref Yin et al., 2013).
As to `O=C1CCc2cc(C(c3cccnc3)c3cccc(Cl)c3)cc3c2N1CC3` (centres unmarked) [CHEMBL2312971], the half-maximal inhibitory concentration (IC50) in data set [1] (ref Yin et al., 2013) was 36 nM; in data set [2] (ref Yin et al., 2013) it was greater than 5000 nM.
In the case of `O=C1CCc2cc(C(c3ccc(F)cc3)c3cccnc3)cc3c2N1CC3` (centres unmarked) [CHEMBL2312972], the IC50 in data set [1] (ref Yin et al., 2013) is 78 nM; in data set [2] (ref Yin et al., 2013), 587 nM.
As to `Cc1nnc2n1-c1c(Cl)cc(-c3cnccc3C3CC3)cc1CC2` [CHEMBL2331703], the IC50 in data set [1] (ref Blass, 2013a) was 6930 nM; in data set [2] (ref Blass, 2013a) it was 48 nM.
On to `COC(C)(C)c1cncc(-c2ccc3c(c2)CCc2nnc(C)n2-3)c1` [CHEMBL2331704], for which the IC50 is 108 nM in data set [1] (ref Blass, 2013a) and 5 nM in data set [2] (ref Blass, 2013a).
On to `Cc1nnc2n1-c1ccc(-c3cncc4ccccc34)cc1CC2` [CHEMBL2331706], for which the IC50 in data set [1] (ref Blass, 2013a) was 407 nM; in data set [2] (ref Blass, 2013a) it was 5 nM.
On to `Fc1ccc(Cn2ccnc2)cn1` [CHEMBL2331707], for which the concentration for half-maximal inhibition (IC50) was 72 nM in data set [1] (ref Blass, 2013b) and 1740 nM in data set [2] (ref Blass, 2013b).
As to `O=c1c2ccccc2oc2c(Cl)ccc(Cn3ccnc3)c12` [CHEMBL2333326], the IC50 is 0.5 nM in data set [1] (ref Gobbi et al., 2013) and 3 nM in data set [2] (ref Gobbi et al., 2013).
